Experimental data taken from PubChem BioAssay (NCI).
Several values for one entry are separate records, joined by “and”; a condition that tells them apart may be missing. Equal values may be shown once.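 Following 48 hours of exposure in 96-well plates, responses at five concentrations were used to interpolate endpoints linearly. GI50 = concentration required for 50% inhibition of growth. Definition used: TGI = concentration required for complete inhibition of growth.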

system: SF-539 CNS; experiment: inhibition of tumour cell growth, NCI panel, 48 h

For CCOC(=O)c1c(SC(=O)/C=C/c2ccccc2)n(-c2ccccc2)c(=S)n(-c2ccccc2)c1=O, the TGI was > 100 µM.

system: SK-MEL-2 melanoma; experiment: inhibition of tumour cell growth, NCI panel, 48 h

Point of comparison: C=C1C(=O)O[C@H]2[C@H]1CC/C(COC(=O)/C=C\C(=O)NCc1ccc(Cn3c(=O)sn(-c4ccc(C#N)cc4)c3=O)cc1)=C\CC[C@@]1(C)O[C@@H]21, GI50 0.935 µM. Against it:
- COc1cc2c3c(n(CCCCl)c(=O)c2cc1OC)-c1ccccc1C3=O — higher, > 100 µM

Point of comparison: C=C1C(=O)O[C@H]2[C@H]1CC/C(COC(=O)/C=C\C(=O)NCc1ccc(Cn3c(=O)sn(-c4ccc(C#N)cc4)c3=O)cc1)=C\CC[C@@]1(C)O[C@@H]21, TGI 2.03 µM. Against it:
- COc1cc2c3c(n(CCCCl)c(=O)c2cc1OC)-c1ccccc1C3=O — higher, > 100 µM

system: SK-MEL-28 melanoma; experiment: inhibition of tumour cell growth, NCI panel, 48 h

C=C1C(=O)O[C@H]2[C@H]1CC/C(COC(=O)/C=C\C(=O)NCc1ccc(Cn3c(=O)sn(-c4ccc(C#N)cc4)c3=O)cc1)=C\CC[C@@]1(C)O[C@@H]21 was tested, and the GI50 was 0.857 µM.

Point of comparison: C=C1C(=O)O[C@H]2[C@H]1CC/C(COC(=O)/C=C\C(=O)NCc1ccc(Cn3c(=O)sn(-c4ccc(C#N)cc4)c3=O)cc1)=C\CC[C@@]1(C)O[C@@H]21, TGI 1.61 µM. Against it:
- COc1cc(C2c3cc4c(cc3[C@@H](Nc3ccccc3)C3CO[C@@H](OC)[C@H]23)OCO4)cc(OC)c1O (stereo not given in full) — higher, > 25 µM
- CCOC(=O)c1c(SC(=O)/C=C/c2ccccc2)n(-c2ccccc2)c(=S)n(-c2ccccc2)c1=O — higher, > 100 µM

system: SK-MEL-5 melanoma; experiment: inhibition of tumour cell growth, NCI panel, 48 h

Point of comparison: COc1cc2c3c(n(CCCCl)c(=O)c2cc1OC)-c1ccccc1C3=O, GI50 21.9 µM. Against it:
- C=C1C(=O)O[C@H]2[C@H]1CC/C(COC(=O)/C=C\C(=O)NCc1ccc(Cn3c(=O)sn(-c4ccc(C#N)cc4)c3=O)cc1)=C\CC[C@@]1(C)O[C@@H]21 — 26-fold lower, 0.842 µM
- COC(=O)c1ccc2c(c1)n(Cc1ccc3ccccc3c1)c[n+]2Cc1ccc2ccccc2c1 — 15-fold lower, 1.46 µM

Point of comparison: COC(=O)c1ccc2c(c1)n(Cc1ccc3ccccc3c1)c[n+]2Cc1ccc2ccccc2c1, TGI 2.78 µM. Against it:
- C=C1C(=O)O[C@H]2[C@H]1CC/C(COC(=O)/C=C\C(=O)NCc1ccc(Cn3c(=O)sn(-c4ccc(C#N)cc4)c3=O)cc1)=C\CC[C@@]1(C)O[C@@H]21 — 1.8-fold lower, 1.55 µM
- COc1cc2c3c(n(CCCCl)c(=O)c2cc1OC)-c1ccccc1C3=O — higher, > 100 µM
- COc1cc(C2c3cc4c(cc3[C@@H](Nc3ccccc3)C3CO[C@@H](OC)[C@H]23)OCO4)cc(OC)c1O (stereo not given in full) — higher, > 25 µM

system: SK-OV-3 ovarian; experiment: inhibition of tumour cell growth, NCI panel, 48 h

Point of comparison: COC(=O)c1ccc2c(c1)n(Cc1ccc3ccccc3c1)c[n+]2Cc1ccc2ccccc2c1, GI50 2.82 µM. Against it:
- C=C1C(=O)O[C@H]2[C@H]1CC/C(COC(=O)/C=C\C(=O)NCc1ccc(Cn3c(=O)sn(-c4ccc(C#N)cc4)c3=O)cc1)=C\CC[C@@]1(C)O[C@@H]21 — within 1.5-fold, 4.02 µM
- COc1cc2c3c(n(CCCCl)c(=O)c2cc1OC)-c1ccccc1C3=O — higher, > 100 µM

Point of comparison: C=C1C(=O)O[C@H]2[C@H]1CC/C(COC(=O)/C=C\C(=O)NCc1ccc(Cn3c(=O)sn(-c4ccc(C#N)cc4)c3=O)cc1)=C\CC[C@@]1(C)O[C@@H]21, TGI 10.5 µM. Against it:
- COc1cc2c3c(n(CCCCl)c(=O)c2cc1OC)-c1ccccc1C3=O — higher, > 100 µM
- COc1cc(C2c3cc4c(cc3[C@@H](Nc3ccccc3)C3CO[C@@H](OC)[C@H]23)OCO4)cc(OC)c1O (stereo not given in full) — higher, > 25 µM
- CCOC(=O)c1c(SC(=O)/C=C/c2ccccc2)n(-c2ccccc2)c(=S)n(-c2ccccc2)c1=O — higher, > 100 µM
- CC(=O)OC[C@]12CC[C@H]3[C@@H](C[C@H]4O[C@]45CC=CC(=O)[C@]35C)[C@]1(O)CC[C@@]2(O)[C@@](C)(O)C1CC(C)=C(C)C(=O)O1 (stereo not given in full) — higher, > 23.7 µM
- COC(=O)c1ccc2c(c1)n(Cc1ccc3ccccc3c1)c[n+]2Cc1ccc2ccccc2c1 — within 1.5-fold, 13.4 µM

system: SN12C renal; experiment: inhibition of tumour cell growth, NCI panel, 48 h

Point of comparison: C=C1C(=O)O[C@H]2[C@H]1CC/C(COC(=O)/C=C\C(=O)NCc1ccc(Cn3c(=O)sn(-c4ccc(C#N)cc4)c3=O)cc1)=C\CC[C@@]1(C)O[C@@H]21, GI50 0.671 µM. Against it:
- COc1cc2c3c(n(CCCCl)c(=O)c2cc1OC)-c1ccccc1C3=O — higher, > 100 µM

Point of comparison: C=C1C(=O)O[C@H]2[C@H]1CC/C(COC(=O)/C=C\C(=O)NCc1ccc(Cn3c(=O)sn(-c4ccc(C#N)cc4)c3=O)cc1)=C\CC[C@@]1(C)O[C@@H]21, TGI 1.57 µM. Against it:
- COc1cc2c3c(n(CCCCl)c(=O)c2cc1OC)-c1ccccc1C3=O — higher, > 100 µM
- COc1cc(C2c3cc4c(cc3[C@@H](Nc3ccccc3)C3CO[C@@H](OC)[C@H]23)OCO4)cc(OC)c1O (stereo not given in full) — higher, > 25 µM
- CCOC(=O)c1c(SC(=O)/C=C/c2ccccc2)n(-c2ccccc2)c(=S)n(-c2ccccc2)c1=O — higher, > 100 µM
- CC(=O)OC[C@]12CC[C@H]3[C@@H](C[C@H]4O[C@]45CC=CC(=O)[C@]35C)[C@]1(O)CC[C@@]2(O)[C@@](C)(O)C1CC(C)=C(C)C(=O)O1 (stereo not given in full) — higher, > 32 µM

system: SNB-19 CNS; experiment: inhibition of tumour cell growth, NCI panel, 48 h

Point of comparison: C=C1C(=O)O[C@H]2[C@H]1CC/C(COC(=O)/C=C\C(=O)NCc1ccc(Cn3c(=O)sn(-c4ccc(C#N)cc4)c3=O)cc1)=C\CC[C@@]1(C)O[C@@H]21, GI50 0.969 µM. Against it:
- COc1cc2c3c(n(CCCCl)c(=O)c2cc1OC)-c1ccccc1C3=O — higher, > 100 µM

Point of comparison: C=C1C(=O)O[C@H]2[C@H]1CC/C(COC(=O)/C=C\C(=O)NCc1ccc(Cn3c(=O)sn(-c4ccc(C#N)cc4)c3=O)cc1)=C\CC[C@@]1(C)O[C@@H]21, TGI 2.27 µM. Against it:
- COc1cc2c3c(n(CCCCl)c(=O)c2cc1OC)-c1ccccc1C3=O — higher, > 100 µM
- COc1cc(C2c3cc4c(cc3[C@@H](Nc3ccccc3)C3CO[C@@H](OC)[C@H]23)OCO4)cc(OC)c1O (stereo not given in full) — higher, > 25 µM
- CCOC(=O)c1c(SC(=O)/C=C/c2ccccc2)n(-c2ccccc2)c(=S)n(-c2ccccc2)c1=O — higher, > 100 µM
- CC(=O)OC[C@]12CC[C@H]3[C@@H](C[C@H]4O[C@]45CC=CC(=O)[C@]35C)[C@]1(O)CC[C@@]2(O)[C@@](C)(O)C1CC(C)=C(C)C(=O)O1 (stereo not given in full) — higher, > 35.4 µM

system: SNB-75 CNS; experiment: inhibition of tumour cell growth, NCI panel, 48 h

In the case of C=C1C(=O)O[C@H]2[C@H]1CC/C(COC(=O)/C=C\C(=O)NCc1ccc(Cn3c(=O)sn(-c4ccc(C#N)cc4)c3=O)cc1)=C\CC[C@@]1(C)O[C@@H]21, the GI50 is reported as 0.581 µM.

Point of comparison: C=C1C(=O)O[C@H]2[C@H]1CC/C(COC(=O)/C=C\C(=O)NCc1ccc(Cn3c(=O)sn(-c4ccc(C#N)cc4)c3=O)cc1)=C\CC[C@@]1(C)O[C@@H]21, TGI 1.33 µM. Against it:
- COc1cc(C2c3cc4c(cc3[C@@H](Nc3ccccc3)C3CO[C@@H](OC)[C@H]23)OCO4)cc(OC)c1O (stereo not given in full) — higher, > 25 µM
- CCOC(=O)c1c(SC(=O)/C=C/c2ccccc2)n(-c2ccccc2)c(=S)n(-c2ccccc2)c1=O — higher, > 100 µM
- CC(=O)OCC1OC(n2c(-c3ccccc3)cc(-c3ccccc3)c(C#N)c2=O)C(OC(C)=O)C(OC(C)=O)C1OC(C)=O (stereo not given) — higher, > 100 µM

CC(=O)OCC1OC(n2c(-c3ccccc3)cc(-c3ccccc3)c(C#N)c2=O)C(OC(C)=O)C(OC(C)=O)C1OC(C)=O (stereo not given) was tested, and the GI50 was 22 µM and 98.5 µM.
